The values below come from patent publication US20240270695A1, “COMPOUNDS, COMPOSITIONS AND METHODS OF TREATING DISORDERS” (Chengdu Anticancer Bioscience LTD, priority 2021, published 2024).

The subject of test [1] is RPE-Neo or RPE-MYC or RPE-MYC expressing an EGFP-Histone 2B fusion protein. Description: Phenotypic screening assay (arrest in mitosis, change in DNA content, cell death; GE IN-Cell Analyzer 2000). Conditions: Homo sapiens, compounds 20 nM to 20 μM, 24, 48 or 72 hours. Format: cell-based.
Test [2] shares this test system. Description: MTT assays of cellular proliferation. Conditions: Homo sapiens, min. effective conc., read-out: Proliferative arrest (<50%). In kind it is cell-based. For orientation: Tetrazolium assays rely on reduction of a dye to a coloured formazan, in cell work by metabolically active cells.
The mark [3] stands for this setting: read-out: Min. Effective conc. for Polyploidy (≥10%).
Where [4] appears, read: min. effective conc., read-out: Cell Death (>30%).
Where [5] appears, read: min. effective conc., read-out: Mitotic Arrest (≥10%).

For the molecule `CNC(=O)C1CC(=O)N(Cc2ccc(C)c(C)c2)c2ccccc2C1=O` (centres unmarked) [Example 100, 1-(3,4-dimethylbenzyl)-5-hydroxy-N-methyl-2-oxo-2,3-dihydro-1H-benzo[b]azepine-4-carboxamide], the minimal effective concentration in test [1] (setting [3]), in test [1] (setting [4]), in test [1] (setting [5]) and in test [2] was 1 to 10 µM in each case.

In the case of `CNC(=O)C1=C(O)c2ccccc2N(c2ccc(OC)c(F)c2)C(=O)C1` [Example 95, 1-(3-fluoro-4-methoxyphenyl)-5-hydroxy-N-methyl-2-oxo-2,3-dihydro-1H-benzo[b]azepine-4-carboxamide], the minimal effective concentration in test [1] (setting [3]) fell in the range of 10 to 30 µM; in test [1] (setting [4]), 10 to 30 µM; in test [1] (setting [5]) it was 1 to 10 µM; in test [2], 10 to 30 µM.

In the case of `CNC(=O)C1=C(O)c2ccccc2N(Cc2cc(C)cc(C)c2)C(=O)C1` [Example 97, 1-(3,5-dimethylbenzyl)-5-hydroxy-N-methyl-2-oxo-2,3-dihydro-1H-benzo[b]azepine-4-carboxamide], the minimal effective concentration in test [1] (setting [3]), in test [1] (setting [4]), in test [1] (setting [5]) and in test [2] was 1 to 10 µM each time.

Consider `CNC(=O)C1=C(O)c2ccccc2N(Cc2ccc(C#N)cc2)C(=O)C1` [Example 85, 1-(4-cyanobenzyl)-5-hydroxy-N-methyl-2-oxo-2,3-dihydro-1H-benzo[b]azepine-4-carboxamide], for which the minimal effective concentration in test [1] (setting [3]), in test [1] (setting [4]), in test [1] (setting [5]) and in test [2] was 30 to 1000 µM throughout.

With `CNC(=O)C1=C(O)c2ccc(C#N)cc2N(Cc2ccc(C)c(F)c2)C(=O)C1` [Example 139], the minimal effective concentration in test [1] (setting [3]), in test [1] (setting [4]), in test [1] (setting [5]) and in test [2] was 1 to 10 µM in each case.

Turning to `CNC(=O)C1CC(=O)N(Cc2c(F)cccc2F)c2ccccc2C1=O` (centres unmarked) [Example 108, 1-(2,6-difluorobenzyl)-5-hydroxy-N-methyl-2-oxo-2,3-dihydro-1H-benzo[b]azepine-4-carboxamide], the minimal effective concentration in test [1] (setting [3]), in test [1] (setting [4]), in test [1] (setting [5]) and in test [2] was 30 to 1000 µM throughout.

For the molecule `CNC(=O)C1=C(O)c2ccccc2N(Cc2ccc(F)cc2)C(=O)C1` [Example 76, 1-(4-fluorobenzyl)-5-hydroxy-N-methyl-2-oxo-2,3-dihydro-1H-benzo[b]azepine-4-carboxamide], the minimal effective concentration in test [1] (setting [3]), in test [1] (setting [4]), in test [1] (setting [5]) and in test [2] was 1 to 10 µM in each case.

As to `CNC(=O)C1=C(O)c2ccccc2N(Cc2cccnc2)C(=O)C1` [Example 75, 5-hydroxy-N-methyl-2-oxo-1-(pyridin-3-ylmethyl)-2,3-dihydro-1H-benzo[b]azepine-4-carboxamide], the minimal effective concentration in test [1] (setting [3]), in test [1] (setting [4]), in test [1] (setting [5]) and in test [2] was 30 to 1000 µM each time.

In the case of `CNC(=O)C1=C(O)c2ccccc2N(Cc2cc(F)ccc2F)C(=O)C1` [Example 106, 1-(2,5-difluorobenzyl)-5-hydroxy-N-methyl-2-oxo-2,3-dihydro-1H-benzo[b]azepine-4-carboxamide], the minimal effective concentration in test [1] (setting [3]), in test [1] (setting [4]), in test [1] (setting [5]) and in test [2] was 30 to 1000 µM in each case.

`CNC(=O)C1=C(O)c2ccccc2N(Cc2ccc(OC)c(C(F)(F)F)c2)C(=O)C1` [Example 123, 5-hydroxy-1-(4-methoxy-3-(trifluoromethyl)benzyl)-N-methyl-2-oxo-2,3-dihydro-1H-benzo[b]azepine-4-carboxamide]: the minimal effective concentration in test [1] (setting [3]), in test [1] (setting [4]), in test [1] (setting [5]) and in test [2] was 30 to 1000 µM in each case.

For `CNC(=O)C1CC(=O)N(Cc2c(C)cccc2C)c2ccccc2C1=O` (centres unmarked) [Example 99, 1-(2,6-dimethylbenzyl)-5-hydroxy-N-methyl-2-oxo-2,3-dihydro-1H-benzo[b]azepine-4-carboxamide], the minimal effective concentration in test [1] (setting [3]), in test [1] (setting [4]), in test [1] (setting [5]) and in test [2] was 30 to 1000 µM each time.

Consider `CCc1ccc(CN2C(=O)CC(C(=O)NC)=C(O)c3ccccc32)cc1` [Example 86, 1-(4-ethylbenzyl)-5-hydroxy-N-methyl-2-oxo-2,3-dihydro-1H-benzo[b]azepine-4-carboxamide], for which the minimal effective concentration in test [1] (setting [3]), in test [1] (setting [4]), in test [1] (setting [5]) and in test [2] was 1 to 10 µM throughout.

As to `CNC(=O)C1=C(O)c2ccccc2N(Cc2cccc(C)c2)C(=O)C1` [Example 80, 5-hydroxy-N-methyl-1-(3-methylbenzyl)-2-oxo-2,3-dihydro-1H-benzo[b]azepine-4-carboxamide], the minimal effective concentration in test [1] (setting [3]), in test [1] (setting [4]), in test [1] (setting [5]) and in test [2] was 1 to 10 µM each time.

For the molecule `CNC(=O)C1=C(O)c2ccccc2N(Cc2cc(F)ccc2C)C(=O)C1` [Example 115, 1-(5-fluoro-2-methylbenzyl)-5-hydroxy-N-methyl-2-oxo-2,3-dihydro-1H-benzo[b]azepine-4-carboxamide], the minimal effective concentration was 30 to 1000 µM in test [1] (setting [3]), 30 to 1000 µM in test [1] (setting [4]), 10 to 30 µM in test [1] (setting [5]) and 30 to 1000 µM in test [2].

As to `CNC(=O)C1=C(O)c2ccccc2N(Cc2ccc(F)c(C)c2)C(=O)C1` [Example 109, 1-(4-fluoro-3-methylbenzyl)-5-hydroxy-N-methyl-2-oxo-2,3-dihydro-1H-benzo[b]azepine-4-carboxamide], the minimal effective concentration fell in the range of 10 to 30 µM in test [1] (setting [3]), 30 to 1000 µM in test [1] (setting [4]), 10 to 30 µM in test [1] (setting [5]) and 30 to 1000 µM in test [2].

In the case of `CNC(=O)C1=C(O)c2ccccc2N(Cc2ccc(C)c(Cl)c2)C(=O)C1` [Example 119, 1-(3-chloro-4-methylbenzyl)-5-hydroxy-N-methyl-2-oxo-2,3-dihydro-1H-benzo[b]azepine-4-carboxamide], the minimal effective concentration in test [1] (setting [3]), in test [1] (setting [4]), in test [1] (setting [5]) and in test [2] was 10 to 30 µM in each case.

Regarding `COc1ccc2c(c1)N(Cc1ccc(C)c(F)c1)C(=O)CC(C(=O)C1CC1)=C2O` [Example 141, 4-(cyclopropanecarbonyl)-1-(3-fluoro-4-methylbenzyl)-5-hydroxy-8-methoxy-1,3-dihydro-2H-benzo[b]azepin-2-one], the minimal effective concentration in test [1] (setting [3]), in test [1] (setting [4]), in test [1] (setting [5]) and in test [2] was 0.001 to 1 µM in each case.
